Data published in the supplement of paper PMC10307832.

What was measured:
Experiment in all cases: relative viability (nuclei count vs DMSO), 5 days (fraction); higher = more cells survive
[1] = compound: CCN1C(=O)C2=CC(=C(N=C2N(C1=O)C3CC3)N)C(=O)N + COc1cccc2cc(-c3nc([C@H]4CC[C@H](C(=O)O)CC4)n4ncnc(N)c34)[nH]c12 [OSI-027] (partner 0.5 µM)
Summary of the method: (§1)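 Relative viability was taken as the ratio of nuclei in treated wells to nuclei in vehicle wells. Lung cancer cell lines in 1536-well plates received compounds by pin tool one day after seeding, either one drug alone or a fixed anchor-drug dose plus five library-drug doses (not always all listed) in √10 steps. Nuclei were counted on 4× images after 5 days of treatment, and values are medians of duplicate plates.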

[2] = compound: CCN1C(=O)C2=CC(=C(N=C2N(C1=O)C3CC3)N)C(=O)N + C[C@@H](Oc1cc(-c2cnn(C3CCNCC3)c2)cnc1N)c1c(Cl)ccc(F)c1Cl [Crizotinib] (partner 1 µM)
Summary of the method: as §1

[3] = compound: CCN1C(=O)C2=CC(=C(N=C2N(C1=O)C3CC3)N)C(=O)N + N=C(N)NC(=N)NCCc1ccccc1 [Phenformin] (partner 250 µM)
Summary of the method: as §1

[4] = compound: CCN1C(=O)C2=CC(=C(N=C2N(C1=O)C3CC3)N)C(=O)N + Cc1nc(NC(=O)N2CCC[C@H]2C(N)=O)sc1-c1ccnc(C(C)(C)C(F)(F)F)c1 [Alpelisib] (partner 2 µM)
Summary of the method: as §1

[5] = compound: CCN1C(=O)C2=CC(=C(N=C2N(C1=O)C3CC3)N)C(=O)N + COc1cc2c(Oc3ccc(NC(=O)C4(C(=O)Nc5ccc(F)cc5)CC4)cc3F)ccnc2cc1OCCCN1CCOCC1 [Foretinib] (partner 0.25 µM)
Summary of the method: as §1

| Cell Line | relative viability ([1]; first compound 0.253 µM) | relative viability ([1]; first compound 0.8 µM) | relative viability ([1]; first compound 2.53 µM) | relative viability ([1]; first compound 8 µM) | relative viability ([2]; first compound 0.253 µM) | relative viability ([2]; first compound 0.8 µM) | relative viability ([2]; first compound 2.53 µM) | relative viability ([2]; first compound 8 µM) | relative viability ([3]; first compound 0.253 µM) | relative viability ([3]; first compound 0.8 µM) | relative viability ([3]; first compound 2.53 µM) | relative viability ([3]; first compound 8 µM) | relative viability ([4]; first compound 0.253 µM) | relative viability ([4]; first compound 0.8 µM) | relative viability ([4]; first compound 2.53 µM) | relative viability ([4]; first compound 8 µM) | relative viability ([5]; first compound 0.253 µM) | relative viability ([5]; first compound 0.8 µM) | relative viability ([5]; first compound 2.53 µM) | relative viability ([5]; first compound 8 µM) |
| --- | --- | --- | --- | --- | --- | --- | --- | --- | --- | --- | --- | --- | --- | --- | --- | --- | --- | --- | --- | --- |
| EKVX | 0.803 | 0.751 | 0.675 | 0.498 | 1.07 | 1.14 | 0.837 | 1.05 | 0.256 | 0.248 | 0.316 | 0.231 | 0.975 | 0.896 | 0.821 | 0.851 | 0.785 | 0.743 | 0.875 | 0.639 |
| EMC-BAC-2 | 0.474 | 0.336 | 0.33 | 0.379 | 0.841 | 0.734 | 0.713 | 0.855 | 0.597 | 0.478 | 0.478 | 0.56 | 0.808 | 0.743 | 0.725 | 0.796 | 1.17 | 1 | 0.935 | 1.17 |
| EPLC-272H | 0.277 | 0.258 | 0.266 | 0.277 | 0.997 | 0.998 | 0.906 | 0.988 | 0.322 | 0.32 | 0.357 | 0.32 | 0.801 | 0.868 | 0.901 | 0.942 | 0.84 | 0.662 | 0.613 | 0.686 |
| H3255 | 0.57 | 0.57 | 0.577 | 0.994 | 0.805 | 0.936 | 0.885 | 0.965 | 0.427 | 0.306 | 0.315 | 0.359 | 0.653 | 0.609 | 0.631 | 0.624 | 0.856 | 0.802 | 0.932 | 1.01 |
| HARA | 0.415 | 0.576 | 0.473 | 0.54 | 1.1 | 1.04 | 0.946 | 1.16 | 0.433 | 0.478 | 0.414 | 0.401 | 0.817 | 0.787 | 0.79 | 0.964 | 0.884 | 0.989 | 0.857 | 0.926 |
| HCC-15 | 0.648 | 0.72 | 0.685 | 0.663 | 0.789 | 0.829 | 0.909 | 0.872 | 0.456 | 0.472 | 0.473 | 0.44 | 0.921 | 0.959 | 0.873 | 0.986 | 1.1 | 1.05 | 1.07 | 0.985 |
| HCC-78 | 0.434 | – | 0.354 | 0.387 | 0.349 | 0.327 | 0.292 | 0.379 | 0.747 | – | 0.75 | 0.685 | 0.299 | 0.337 | 0.31 | 0.467 | 0.532 | – | 0.582 | 0.502 |
| HCC-366 | – | 0.938 | 0.877 | 0.743 | 0.615 | 0.6 | 0.537 | 0.968 | – | 0.595 | 0.589 | 0.589 | 0.442 | 0.505 | 0.456 | 0.468 | – | 0.91 | 0.951 | 0.919 |
| HCC-827 | 0.778 | 0.771 | 0.793 | 0.794 | 0.933 | 0.98 | 0.866 | 0.885 | 0.439 | 0.383 | 0.382 | 0.382 | 0.915 | 0.964 | 0.941 | 0.88 | 0.982 | 0.993 | 0.99 | 1.06 |
| HOP-62 | 0.96 | 0.919 | 0.795 | 0.883 | 0.891 | 0.966 | 0.983 | 0.867 | 0.678 | 0.696 | 0.633 | 0.77 | 1 | 1.06 | 0.778 | 0.964 | 1 | 1.11 | 1.03 | 1.03 |
| LC-2-ad | 0.693 | 0.808 | 0.759 | 0.829 | 0.217 | 0.433 | 0.437 | 0.537 | 0.521 | 0.556 | 0.505 | 0.587 | 0.838 | 0.897 | 0.881 | 0.914 | 0.926 | 0.855 | 0.986 | 0.94 |
| LCLC-97TM1 | 0.466 | 0.371 | 0.441 | 0.56 | 0.366 | – | – | 0.316 | 0.383 | 0.452 | 0.375 | 0.407 | 0.258 | – | – | 0.275 | 0.869 | 0.866 | 0.86 | 1.1 |
| LCLC-103H | 0.411 | 0.475 | 0.49 | 0.399 | 1.02 | 1.07 | 1.02 | 1.02 | 0.341 | 0.305 | 0.291 | 0.364 | 0.935 | 0.962 | 0.907 | 0.934 | 0.852 | 0.721 | 0.728 | 0.922 |
| LK-2 | 0.19 | 0.196 | 0.181 | 0.2 | 0.412 | 0.226 | 0.204 | 0.153 | 0.375 | 0.591 | 0.408 | 0.535 | 0.761 | 1.36 | 1.3 | 1.13 | 1.03 | 1.11 | 1.05 | 1.6 |
| LOU-NH91 | 0.637 | 0.66 | 0.766 | 0.692 | 0.705 | 0.718 | 0.767 | 0.707 | 0.466 | 0.645 | 0.822 | 0.694 | 0.687 | 0.716 | 0.721 | 0.684 | 0.847 | 0.855 | 0.978 | 0.916 |
| LU99A | 0.34 | 0.294 | 0.284 | 0.288 | 0.587 | 0.57 | 0.476 | 0.591 | 0.778 | 0.915 | 0.77 | 0.72 | 0.488 | 0.531 | 0.527 | 0.524 | 0.732 | 0.8 | 0.789 | 0.857 |
